± gives the expanded uncertainty stated by the source.
Assays:
[1] = Liquid; for mass density: 101.33 kPa
[2] = refractive index (Na D-line) (dimensionless); settings: 101.33 kPa, Liquid

Structure (SMILES) | mass density ([1]; 293.15 K) [kg/m3] | refractive index ([2]; 293.15 K) | further results
Cc1ccccc1C [1,2-dimethylbenzene] | 880.1 ± 1.9 | – | vapor or sublimation pressure ([1]; 415.35 K): 95.23 ± 5 kPa
ClC(Cl)=C(Cl)Cl [tetrachloroethene] | 1625 ± 3.7 | 1.505 ± 0.005 | vapor or sublimation pressure ([1]; 392.05 K): 95.23 ± 5 kPa
ClC=C(Cl)Cl [trichloroethene] | – | – | refractive index ([2]; 298.15 K): 1.4782 ± 0.005; mass density ([1]; 298.15 K): 1464 ± 3.3 kg/m3; vapor or sublimation pressure ([1]; 358.35 K): 95.23 ± 5 kPa
ClCCCl [1,2-dichloroethane] | 1252.9 ± 2.7 | 1.4196 ± 0.005 | vapor or sublimation pressure ([1]; 355.05 K): 95.23 ± 5 kPa
Cc1ccc(O)cc1 [4-methylphenol] | – | – | refractive index ([2]; 298.15 K): 1.5391 ± 0.005; vapor or sublimation pressure ([1]; 472.85 K): 95.23 ± 5 kPa
Cc1cccc(C)c1 [1,3-dimethylbenzene] | 864.4 ± 1.7 | 1.4972 ± 0.005 | vapor or sublimation pressure ([1]; 410.15 K): 95.23 ± 5 kPa
ClC(Cl)C(Cl)Cl [1,1,2,2-tetrachloroethane] | 1593 ± 3.6 | 1.494 ± 0.005 | vapor or sublimation pressure ([1]; 417.15 K): 95.23 ± 5 kPa
Cc1ccc(C)cc1 [1,4-dimethylbenzene] | 861 ± 1.7 | 1.4858 ± 0.005 | vapor or sublimation pressure ([1]; 409.15 K): 95.23 ± 5 kPa

— the NIST ThermoML archive (doi:10.1016/j.jct.2006.12.017)
